Activity calls are given as the source filed them. The calls are words filed in the database; no cut-off is given here. Where a SMILES comes first, the peptide text is derived from it. Bridges are numbered along the chain shown (N, C = ends).
Assays:
[1] = test system: Staphylococcus aureus; experiment: Antibiofilm activity against 24 hrs preformed methicillin-resistant Staphylococcus aureus USA300 LAC biofilm assessed as reduction in biofilm viability at 7.2 to 30.3 uM by TTC assay relative to control; format: functional; conditions: dose microM 7.2-30.3
[2] = test system: Staphylococcus aureus; experiment: Antibiofilm activity against 24 hrs preformed methicillin-resistant Staphylococcus aureus SAP0017 biofilm assessed as reduction in biofilm viability at 7.2 to 30.3 uM by TTC assay relative to control; format: functional; conditions: dose microM 7.2-30.3
[3] = test system: Staphylococcus aureus; experiment: Antibiofilm activity against 24 hrs preformed methicillin-resistant Staphylococcus aureus SAP0017 biofilm assessed as reduction in biofilm viability at 100 ug/ml by TTC assay; format: functional, organism-based; conditions: dose 100.0 µg/ml
[4] = test system: Staphylococcus aureus; experiment: Antibiofilm activity against 24 hrs preformed methicillin-resistant Staphylococcus aureus USA300 LAC biofilm assessed as reduction in biofilm viability at 100 ug/ml by TTC assay; format: functional, organism-based; conditions: dose 100.0 µg/ml

In the case of CC[C@H](C)[C@@H]1NC(=O)[C@H](CCCNC(=N)N)NC(=O)[C@H](C(C)C)NC(=O)[C@H](C)NC(=O)[C@H](C(C)C)NC(=O)[C@H]([C@@H](C)CC)NC(=O)[C@H](CC(C)C)NC(=O)[C@H](CCCNC(=N)N)NC(=O)[C@H](C(C)C)NC(=O)CC[C@@H](C(N)=O)NC(=O)[C@H](CCCNC(=N)N)NC(=O)[C@H](CCCNC(=N)N)NC(=O)[C@H](Cc2c[nH]c3ccccc23)NC1=O (VRLIVAVRIWRRE-NH2; lactam N-13), the Activity [1] is reported as 70% and the Activity [2] is reported as 70%.

For CN[C@H](CC(C)C)C(=O)N[C@H]1C(=O)N[C@@H](CC(N)=O)C(=O)N[C@H]2C(=O)N[C@H]3C(=O)N[C@H](C(=O)N[C@H](C(=O)O)c4cc(O)cc(O)c4-c4cc3ccc4O)[C@H](O)c3ccc(c(Cl)c3)Oc3cc2cc(c3O[C@@H]2O[C@H](CO)[C@@H](O)[C@H](O)[C@H]2O[C@H]2C[C@](C)(N)[C@H](O)[C@H](C)O2)Oc2ccc(cc2Cl)[C@H]1O [VANCOMYCIN], the Activity [3] was “inactive” and the Activity [4] was “inactive”.

H-VRLIVAVRIWRR-NH2 gave an Activity [1] of 70% and an Activity [2] of 70%.

Reference: ChEMBL document CHEMBL4725351, “Cyclic Derivative of Host-Defense Peptide IDR-1018 Improves Proteolytic Stability, Suppresses Inflammation, and Enhances In Vivo Activity” (J Med Chem, 2020)
